Patent publication US12285012B2, “Compositions comprising pyridine carboxylate herbicides with acetolactate synthase (ALS) inhibitor herbicides” (Corteva Agriscience LLC, priority 2018, dated 2025)
Values joined by “and” are separate entries in the source; they are usually repeats but may differ in a detail not shown here. Identical values can stand only once. Like-named read-outs stand apart in the source and are kept apart here.

Key:
[1] = tested on: spring wheat (TRZAS); type: in vivo, Triticum aestivum; details: TRZAS
How it was run: (§1)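 Injury was rated visually after 20-22 d on a 0 (none) to 100% (complete kill) scale relative to solvent-sprayed controls, with sub-irrigation to avoid wash-off. Rates were given in g ae/ha or g ai/ha depending on component.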

[2] = tested on: Russian thistle (SASKR, Salsola kali); test: Greenhouse postemergence herbicidal effect; type: in vivo; details: SASKR; Compound B 10 g/ha
How it was run: as §1

[3] = tested on: pineapple weed (MATMT, Matricaria discoidea); test: Greenhouse postemergence herbicidal effect; type: in vivo; details: MATMT; Compound B 10 g/ha
How it was run: as §1

[4] = tested on: wild pansy (VIOTR, Viola tricolor); test: Greenhouse postemergence herbicidal effect; type: in vivo; details: for Obs % visual injury: VIOTR
How it was run: as §1

[5] = tested on: winter rape (BRSNW, Brassica napus); test: Greenhouse postemergence herbicidal effect; type: in vivo; details: BRSNW; Compound B 10 g/ha
How it was run: as §1

[6] = tested on: pigweed (AMARE, Amaranthus retroflexus); test: Greenhouse postemergence herbicidal effect; type: in vivo; details: for Obs % visual injury: AMARE
How it was run: as §1

[7] = tested on: chickweed (STEME, Stellaria media); test: Greenhouse postemergence herbicidal effect; type: in vivo; details: for Obs % visual injury: STEME
How it was run: as §1

[8] = tested on: wild chamomile (MATCH, Matricaria chamomilla); test: Greenhouse postemergence herbicidal effect; type: in vivo; details: MATCH; Compound B 10 g/ha
How it was run: as §1

[9] = tested on: Canadian thistle (CIRAR, Cirsium arvense); test: Greenhouse postemergence herbicidal effect; type: in vivo
How it was run: as §1

[10] = tested on: kochia (KCHSC, Kochia scoparia); test: Greenhouse postemergence herbicidal effect; type: in vivo; details: for Obs % visual injury: KCHSC
How it was run: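 Plants at the second or third true leaf stage received overhead spray at 187 L/ha, with the pyridine carboxylate (plus cloquintocet-mexyl safener) alone or with ALS herbicides in 1.25% v/v crop oil. Rates are in g ae/ha or g ai/ha. Visual injury versus solvent-blank controls was scored 0–100% after 20-22 d in the greenhouse.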

[11] = tested on: common lambsquarters (CHEAL, Chenopodium album L.); test: Greenhouse postemergence herbicidal effect; type: in vivo; details: for Obs % visual injury: CHEAL
[12] = Compound B (without cloquintocet-mexyl safener) 10 g/ha

Structure (SMILES): C#CCOC(=O)c1nc(-c2ccc3cc[nH]c3c2F)c(F)c(N)c1Cl [Compound B, propargyl 4-amino-3-chloro-5-fluoro-6-(7-fluoro-1H-indol-6-yl)pyridine-2-carboxylate]
- Obs % visual injury ([1]; Compound B 5 g/ha): 13%
- Obs % visual injury [1, 12]: 28%
- Obs % visual injury [2]: 63%
- Obs % visual injury [3]: 20%
- % visual injury, Obs ([4]; 10 g/ha): 8%
- Obs % visual injury ([4]; Compound B 5 g/ha): 20%
- Obs % visual injury ([4]; Compound B 10 g/ha): 18%
- Obs % visual injury [5]: 93%
- % visual injury, Obs ([6]; 10 g/ha): 73%
- Obs % visual injury ([6]; Compound B 5 g/ha): 93%
- Obs % visual injury ([6]; Compound B 10 g/ha): 84% and 94%
- % visual injury, Obs ([7]; 10 g/ha): 90%
- Obs % visual injury ([7]; Compound B 5 g/ha): 85%
- Obs % visual injury ([7]; Compound B 10 g/ha): 95%
- Obs % visual injury [8]: 20% and 18%
- Obs % visual injury ([9]; CIRAR, Compound B 5 g/ha): 50%
- pest or weed control at 10 g/ha ([9]; Cirsium arvense, post-emergence, 10 g/ha, read-out: % visual injury, Obs): 55%
- pest or weed control at 10 g/ha ([10]; Bassia scoparia, post-emergence, 10 g/ha, read-out: % visual injury, Obs): 73%
- Obs % visual injury ([10]; Compound B 5 g/ha): 60%
- Obs % visual injury ([10]; Compound B 10 g/ha): 65%
- Obs % visual injury [10, 12]: 96%
- % visual injury, Obs ([11]; 10 g/ha): 93%
- Obs % visual injury ([11]; Compound B 5 g/ha): 96%
- Obs % visual injury ([11]; Compound B 10 g/ha): 94% and 96%
